Experimental data from patent US20030232079A1, “DPC 333 formulation having unique biopharmaceutical characteristics” (priority 2002, published 2003).
Read-outs that look alike come from different tables or passages of the source.

Experiments:
Assay type in all cases: in vivo, human
[1] = Double-blind, placebo controlled, ascending single dose pharmacokinetic study of oral DPC 333 in healthy subjects; settings: for half-life / Cmax / Tmax / AUC / AUC(0-inf) / concentration at 12 h: both sexes, human, plasma; for AUC: read-out: mean AUC from time zero to time infinity, range; for concentration at 12 h: read-out: C12 (plasma concentration at 12 hours) Mean
Description: (§1) The safety, tolerability, and pharmacokinetics of an oral dose form of DPC 333 were evaluated in a double-blind, placebo controlled, ascending single dose study in healthy male and female human subjects. Subjects in each cohort were randomized to receive either a single dose of DPC 333 (n=6) or placebo (n=2). Doses examined were 15, 25, 40, 80, 120, 225, 345, and 530 mg. Safety measurements included monitoring of AEs, standard clinical laboratory tests, ECGs, and vital sign measurements.
(§2) Blood samples were obtained pre-dose (0 hour) and 0.25, 0.5, 1, 1.5, 2, 2.5, 3, 4, 6, 8, 12, 18, 24, 36 and 48 hours post-dose administration. DPC 333 was quantified plasma extracts from these blood samples by a solid phase method followed by turbo ion spray liquid chromatography employing tandem mass spectroscopic detection (LC/MS/MS). The validated assay range for DPC 333 using 0.2 mL of plasma was 1.05 to 2098 nM. The assay was specific for DPC 333.
(§3) The following pharmacokinetic parameters for DPC 333 were assessed following a single dose administration of the DPC 333 oral dosage form to a subject: Cmax, Tmax, AUC, T1/2, Clo, and C12. Cmax is defined as the observed maximum plasma concentration. Tmax is defined as the time of observed maximum plasma concentration. AUC is defined as the area under the plasma concentration-time curve from time zero to time infinity; T1/2 is defined as the terminal disposition half-life.

[2] = Comparison of DPC 333 pharmacokinetics by gender in fasted subjects; settings: for half-life / AUC(0-inf) / Cmax / Tmax: human, plasma, oral, 225 mg; for half-life: harmonic mean ± pseudo-standard deviation; for AUC(0-inf) / Cmax: mean ± SD; for Tmax: read-out: Tmax (median)
Description: as §2, §3
Differences in pharmacokinetics of DPC 333 based upon gender were also examined. The following table provides a comparison of DPC 333 pharmacokinetics by gender in fasted subjects receiving a single dose of 225 mg of DPC 333.

[3] = Double-blind, placebo controlled, ascending single dose pharmacokinetic study of oral DPC 333 in healthy subjects; settings: single oral dose 80 mg, healthy volunteers, n = 12
[4] = Safety and tolerability of single oral doses of DPC 333 (AEs, clinical laboratory tests, ECGs, vital signs)
Description: as §1

[5] = Effect of food on pharmacokinetics of oral DPC 333, two period crossover study (fasted vs high-fat breakfast); settings: for AUC(0-inf) / AUC(0-t) / Cmax: male, po, n = 6, mean ± SD
Description: as §2, §3
The effect of food on the safety, tolerability and pharmacokinetics of this oral dose form of DPC 333 was also examined in a randomized, open label, two period balanced crossover study in one cohort of male subjects. Each subject received a single oral 225 mg dose of DPC 333 on two occasions administered at least one week apart. On one occasion the dose was given in the fasted state and on the other occasion the dose was administered after a standard, high-fat breakfast meal. The following table provides pharmacokinetic data from this study.

[6] = single oral dose 15 mg, healthy volunteers, n = 6
[7] = single oral dose 25 mg, healthy volunteers, n = 6
[8] = single oral dose 40 mg, healthy volunteers, n = 6
[9] = single oral dose 80 mg, healthy volunteers, n = 12
[10] = single oral dose 120 mg, healthy volunteers, n = 6
[11] = single oral dose 225 mg, healthy volunteers, n = 6
[12] = single oral dose 345 mg, healthy volunteers, n = 6
[13] = single oral dose 530 mg, healthy volunteers, n = 6
[14] = female, Females (n = 6), Part 1: 225 mg (fasted)
[15] = male, Males (n = 6), Part 1: 225 mg (fasted)
[16] = male, Males (n = 6), Part 2: 225 mg (fasted)
[17] = administered with food compared to fasted state, 225 mg
[18] = fed/fasted, fasted treatment as the reference, 225 mg
[19] = human, plasma, 225 mg, Fasted, 225 mg single oral dose, male subjects
[20] = human, plasma, 225 mg, Fed (high-fat breakfast), 225 mg single oral dose, male subjects

Compound: Cc1cc(COc2ccc([C@]3(N)CCN([C@H](CC(C)C)C(=O)NO)C3=O)cc2)c2ccccc2n1 [DPC 333, [1-(R)]-3-amino-N-hydroxy-alpha-(2-methylpropyl)-3-[4-[(2-methyl-4-quinolinyl)methoxy]phenyl]-2-oxo-1-pyrrolidineacetamide]
- increase in mean AUC (time zero to time infinity) with dose ([1]; at a single dose greater than 225 mg): greater than proportional increase
- increase in exposure (AUC) with dose ([1]; at the 345 mg and 530 mg doses): greater-than-proportional increase
- half-life ([1]; oral, for the higher doses, read-out: mean half-life estimates (converted)): ~6 h
- half-life ([1]; oral, single dose administrations ranging from 15 mg to 530 mg, read-out: mean terminal disposition half-life (T1/2)): 2 to 7 h
- Cmax ([1]; oral, single dose of 15 mg, read-out: mean maximum plasma concentration (Cmax), range): 0.088 to 0.18 µM
- Tmax ([1]; oral, single dose of 15 mg, read-out: mean time of maximum plasma concentration (Tmax), range): 0.5 to 1 h
- AUC ([1]; oral, single dose of 25 mg): 0.45 to 0.9 µM·h
- Cmax ([1]; oral, single dose of 25 mg, read-out: mean maximum plasma concentration (Cmax), range): 0.17 to 0.435 µM
- Tmax ([1]; oral, single dose of 25 mg, read-out: mean time of maximum plasma concentration (Tmax), range): 0.5 to 1 h
- AUC ([1]; oral, single dose of 40 mg): 0.93 to 1.43 µM·h
- Tmax ([1]; oral, single dose of 40 mg, read-out: mean time of maximum plasma concentration (Tmax), range): 0.25 to 1 h
- Cmax ([1]; oral, single dose of 40 mg, upper limit in μM, read-out: mean maximum plasma concentration (Cmax), range): 0.355 to 0.655 µM
- AUC ([1]; oral, single dose of 80 mg): 2.25 to 4.16 µM·h
- Tmax ([1]; oral, single dose of 80 mg, read-out: mean time of maximum plasma concentration (Tmax), range): 0.5 to 1 h
- Cmax ([1]; oral, single dose of 80 mg, upper limit in μM, read-out: mean maximum plasma concentration (Cmax), range): 0.965 to 1.87 µM
- AUC ([1]; oral, single dose of 120 mg): 3.33 to 6.21 µM·h
- Cmax ([1]; oral, single dose of 120 mg, read-out: mean maximum plasma concentration (Cmax), range): 1.54 to 2.35 µM
- Tmax ([1]; oral, single dose of 120 mg, read-out: mean time of maximum plasma concentration (Tmax), range): 0.5 to 1 h
- AUC ([1]; oral, single dose of 225 mg): 6.38 to 9.4 µM·h
- Tmax ([1]; oral, single dose of 225 mg, read-out: mean time of maximum plasma concentration (Tmax), range): 0.5 to 1 h
- Cmax ([1]; oral, single dose of 225 mg, upper limit in μM, read-out: mean maximum plasma concentration (Cmax), range): 2.62 to 3.65 µM
- AUC ([1]; oral, single dose of 345 mg): 18.4 to 28.8 µM·h
- Cmax ([1]; oral, single dose of 345 mg, read-out: mean maximum plasma concentration (Cmax), range): 6.58 to 15.4 µM
- Tmax ([1]; oral, single dose of 345 mg, read-out: mean time of maximum plasma concentration (Tmax), range): 0.25 to 1 h
- AUC ([1]; oral, single dose of 530 mg): 22 to 39.5 µM·h
- Cmax ([1]; oral, single dose of 530 mg, read-out: mean maximum plasma concentration (Cmax), range): 9.45 to 18.1 µM
- Tmax ([1]; oral, single dose of 530 mg, read-out: mean time of maximum plasma concentration (Tmax), range): 0.5 to 1 h
- half-life ([1]; po, 15 mg, single oral dose 15 mg, healthy volunteers, n = 6, read-out: T½ Mean (harmonic mean) (converted)): 2.18 h
- half-life ([1]; po, 25 mg, single oral dose 25 mg, healthy volunteers, n = 6, read-out: T½ Mean (harmonic mean) (converted)): 2.86 h
- half-life ([1]; po, 40 mg, single oral dose 40 mg, healthy volunteers, n = 6, read-out: T½ Mean (harmonic mean) (converted)): 3.41 h
- half-life ([1]; po, 80 mg, single oral dose 80 mg, healthy volunteers, n = 12, read-out: T½ Mean (harmonic mean) (converted)): 4.05 h
- half-life ([1]; po, 120 mg, single oral dose 120 mg, healthy volunteers, n = 6, read-out: T½ Mean (harmonic mean) (converted)): 4.89 h
- half-life ([1]; po, 225 mg, single oral dose 225 mg, healthy volunteers, n = 6, read-out: T½ Mean (harmonic mean) (converted)): 5.53 h
- half-life ([1]; po, 345 mg, single oral dose 345 mg, healthy volunteers, n = 6, read-out: T½ Mean (harmonic mean) (converted)): 6.39 h
- half-life ([1]; po, 530 mg, single oral dose 530 mg, healthy volunteers, n = 6, read-out: T½ Mean (harmonic mean) (converted)): 6.04 h
- Tmax ([1]; oral administration, post dose, doses 15 to 530 mg, read-out: Tmax values): < 1 h
- AUC(0-inf) [1, 6]: 0.342 µM·h
- concentration at 12 h [1, 6]: 2.09 nM
- Cmax ([1]; single oral dose 15 mg, healthy volunteers, n = 6, read-out: Cmax Mean): 0.134 µM
- Tmax ([1]; single oral dose 15 mg, healthy volunteers, n = 6, read-out: Tmax Median): 0.75 h
- AUC(0-inf) [1, 7]: 0.676 µM·h
- concentration at 12 h [1, 7]: 4.41 nM
- Cmax ([1]; single oral dose 25 mg, healthy volunteers, n = 6, read-out: Cmax Mean): 0.303 µM
- Tmax ([1]; single oral dose 25 mg, healthy volunteers, n = 6, read-out: Tmax Median): 0.5 h
- AUC(0-inf) [1, 8]: 1.18 µM·h
- concentration at 12 h [1, 8]: 6.36 nM
- Cmax ([1]; single oral dose 40 mg, healthy volunteers, n = 6, read-out: Cmax Mean): 0.505 µM
- Tmax ([1]; single oral dose 40 mg, healthy volunteers, n = 6, read-out: Tmax Median): 0.5 h
- AUC(0-inf) [1, 9]: 3.2 µM·h
- concentration at 12 h [1, 9]: 20.4 nM
- Cmax ([1]; single oral dose 80 mg, healthy volunteers, n = 12, read-out: Cmax Mean): 1.42 µM
- Tmax ([1]; single oral dose 80 mg, healthy volunteers, n = 12, read-out: Tmax Median): 0.5 h
- AUC(0-inf) [1, 10]: 4.77 µM·h
- concentration at 12 h [1, 10]: 30.3 nM
- Cmax ([1]; single oral dose 120 mg, healthy volunteers, n = 6, read-out: Cmax Mean): 1.94 µM
- Tmax ([1]; single oral dose 120 mg, healthy volunteers, n = 6, read-out: Tmax Median): 0.5 h
- AUC(0-inf) [1, 11]: 7.89 µM·h
- concentration at 12 h [1, 11]: 49 nM
- Cmax ([1]; single oral dose 225 mg, healthy volunteers, n = 6, read-out: Cmax Mean): 3.14 µM
- Tmax ([1]; single oral dose 225 mg, healthy volunteers, n = 6, read-out: Tmax Median): 0.75 h
- AUC(0-inf) [1, 12]: 23.6 µM·h
- concentration at 12 h [1, 12]: 153 nM
- Cmax ([1]; single oral dose 345 mg, healthy volunteers, n = 6, read-out: Cmax Mean): 11 µM
- Tmax ([1]; single oral dose 345 mg, healthy volunteers, n = 6, read-out: Tmax Median): 0.75 h
- AUC(0-inf) [1, 13]: 30.8 µM·h
- concentration at 12 h [1, 13]: 167 nM
- Cmax ([1]; single oral dose 530 mg, healthy volunteers, n = 6, read-out: Cmax Mean): 13.8 µM
- Tmax ([1]; single oral dose 530 mg, healthy volunteers, n = 6, read-out: Tmax Median): 0.5 h
- CLo (apparent oral clearance) Mean [1, 6]: 98.0 L/h
- CLo (apparent oral clearance) Mean [1, 7]: 85.7 L/h
- CLo (apparent oral clearance) Mean [1, 8]: 74.5 L/h
- CLo (apparent oral clearance) Mean [1, 10]: 56.0 L/h
- CLo (apparent oral clearance) Mean [1, 11]: 61.6 L/h
- CLo (apparent oral clearance) Mean [1, 12]: 32.0 L/h
- CLo (apparent oral clearance) Mean [1, 13]: 38.6 L/h
- oral absorption ([1]; upon oral administration): rapidly and well absorbed
- differences in pharmacokinetics due to gender ([2]; fasted subjects, single dose of 225 mg): No apparent differences
- half-life [2, 14]: 5.93 ± 0.66 h
- AUC(0-inf) [2, 14]: 11.4 ± 2.17 µM·h
- Cmax [2, 14]: 6650 ± 1750 nM
- Tmax [2, 14]: 0.51 h
- half-life [2, 15]: 5.53 ± 0.88 h
- AUC(0-inf) [2, 15]: 7.89 ± 1.51 µM·h
- Cmax [2, 15]: 3140 ± 511 nM
- Tmax [2, 15]: 0.75 h
- half-life [2, 16]: 6.19 ± 1.21 h
- AUC(0-inf) [2, 16]: 12.5 ± 2.79 µM·h
- Cmax [2, 16]: 5700 ± 1420 nM
- Tmax [2, 16]: 0.5 h
- CLo (apparent oral clearance) Mean [3]: 57.3 L/h
- dose-related trends in safety parameters ([4]; all safety parameters measured, doses 15 to 530 mg): no dose-related mean trends observed
- discontinuations because of an AE / serious AEs ([4]; doses 15 to 530 mg): no discontinuations because of an AE nor any serious AEs reported
- criteria for an intolerable dose ([4]; doses evaluated, 15 to 530 mg): criteria for an intolerable dose were not achieved
- tolerability ([4]; oral dose form, healthy volunteers): well tolerates
- decrease in AUC with food [5, 17]: about 23%
- decrease in Cmax with food [5, 17]: about 40%
- AUC (0-t) Geometric Mean Ratio [5, 18]: 0.767
- AUC (0-∞) Geometric Mean Ratio [5, 18]: 0.767
- Cmax Geometric Mean Ratio [5, 18]: 0.597
- Tmax ([5]; human, plasma, Fasted, 225 mg single oral dose, male subjects, n = 6, read-out: Tmax (median)): 0.5 h
- AUC(0-inf) [5, 19]: 12.5 ± 2.79 µM·h
- AUC(0-t) [5, 19]: 12.4 ± 2.79 µM·h
- Cmax [5, 19]: 5700 ± 1420 nM
- AUC(0-inf) [5, 20]: 9.49 ± 1.71 µM·h
- AUC(0-t) [5, 20]: 9.48 ± 1.71 µM·h
- Cmax [5, 20]: 3410 ± 832 nM
